According to patent US8318781B2, “G-protein-conjugated receptor agonist” (Japan Science and Technology Agency, priority 2007, dated 2012):
pEC50: −log10 of the molar value. Read-outs that look alike come from different tables or passages of the source.

Key:
human GPR120 (hGPR120) [1] = biological target: T1, human GPR120 (hGPR120) (Homo sapiens, UniProt Q5NUL3); assay: Determination of intracellular Ca2+ concentration (FLIPR), cell line GPR120/Flp-in; type: cell-based
T1 construct: expressed in transfected cells; doxycycline-inducible expression vector
T1 sequence (Q5NUL3 1-361): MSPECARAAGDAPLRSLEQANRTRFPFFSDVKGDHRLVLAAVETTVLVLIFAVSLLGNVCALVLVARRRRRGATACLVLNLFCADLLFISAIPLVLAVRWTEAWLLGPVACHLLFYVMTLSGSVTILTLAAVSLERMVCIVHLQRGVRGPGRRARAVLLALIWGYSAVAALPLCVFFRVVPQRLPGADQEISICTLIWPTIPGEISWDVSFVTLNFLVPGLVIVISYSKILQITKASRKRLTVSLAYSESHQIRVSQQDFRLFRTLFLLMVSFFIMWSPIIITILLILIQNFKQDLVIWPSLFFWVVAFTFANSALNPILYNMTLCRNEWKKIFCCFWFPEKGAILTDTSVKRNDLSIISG

human GPR40 (hGPR40) = biological target: T2, human GPR40 (hGPR40) (Homo sapiens, UniProt O14842); assay: Determination of intracellular Ca2+ concentration (FLIPR), cell line TXGPR40; type: cell-based
T2 construct: expressed in transfected cells; doxycycline-inducible expression vector

human GPR120 (hGPR120) [2] = biological target: T1, human GPR120 (hGPR120); assay: Determination of intracellular Ca2+ concentration (FLIPR), cell line TXGPR120; type: cell-based; conditions: TXGPR120 cells, maximum fluorescence intensity vs ligand concentration; read-out: [Ca^2+]/GPR120 pEC50 (converted)
[3] = system: GLP-1 (Glucagon-Like Peptide) release; assay: GLP-1 (glucagon-like peptide) release test in mice; type: in vivo; conditions: C57BL/6J mice; for Average GLP-1 concentration: given into the colon by catheter, portal vein blood after 15 minutes, ELISA, NCG21 suspension in PEG at 100 mmol/g body weight; for increase of GLP-1 concentration in the portal blood relative to control DMSO: portal blood 15 minutes after colonic administration
Description: C57BL/6J mice (8 weeks old) were anesthetized with Nembutal (pentobarbital sodium) (60 mg/kg body weight), a catheter was inserted into the colon through the celiotomy, and the solution of the test compound was administered through the catheter (NCG21 as a suspension in PEG at 100 mmol/g body weight, at a rate of 100 μl/min). After 15 minutes, a blood sample was taken from the portal vein, centrifuged at 8000 rpm for 10 minutes, and the supernatant was stored at −80° C. GLP-1 (ng/mL) was determined using ELISA kit (Wako Pure Chemical Industries, Ltd.) within the next day. Each group consists of 12 mice, except that 11 mice were used for NCG21.

T2 sequence (O14842 whole entry): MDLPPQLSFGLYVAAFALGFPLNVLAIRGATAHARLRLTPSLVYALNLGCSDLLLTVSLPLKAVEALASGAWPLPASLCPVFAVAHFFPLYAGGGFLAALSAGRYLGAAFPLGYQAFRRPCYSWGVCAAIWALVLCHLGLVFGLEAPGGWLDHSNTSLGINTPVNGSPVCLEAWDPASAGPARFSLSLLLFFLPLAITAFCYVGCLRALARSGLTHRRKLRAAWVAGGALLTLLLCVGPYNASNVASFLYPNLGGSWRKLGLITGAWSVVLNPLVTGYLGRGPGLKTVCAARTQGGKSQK

pEC50 (human GPR120 (hGPR120) [1]) | pEC50 (human GPR40 (hGPR40)) | melting point | EC50 (human GPR120 (hGPR120) [2]) | EC50 (human GPR120 (hGPR120) [1]; GPR120/Flp-in cells, maximum fluorescence intensity vs ligand concentration, read-out: [Ca^2+]/GPR120/Flp-In pEC50 (converted)) | EC50 (human GPR40 (hGPR40); TXGPR40 cells, maximum fluorescence intensity vs ligand concentration, read-out: [Ca^2+]/GPR40 pEC50 (converted)) | Compound | Average GLP-1 concentration [3] | increase of GLP-1 concentration in the portal blood relative to control DMSO [3]
5.04 | 5.11 | 74 to 75 °C |  |  |  | O=C(O)CCCCc1ccc(OCCN(c2ccccc2)c2ccccn2)cc1 [NCG23, 5-{4-[2-(2-phenylpyridinylamino)ethoxy]phenyl}pentanoic acid] |  | 
 |  | 98 to 99 °C | 2.88 µM | 1.26 µM | 18.6 µM | O=C(O)CCCc1ccc(OCCN(c2ccccc2)c2ccccn2)cc1 [NCG21] | 4.02 ng/mL | 2.5 times
 |  |  |  |  |  | CC/C=C\C/C=C\C/C=C\CCCCCCCC(=O)O [LA, cis-α-linolenic acid, reference compound] | 3.87 ng/mL | 2.4 times
